From ChEMBL document CHEMBL1141885, “N1-arylsulfonyl-3-(1,2,3,6-tetrahydropyridin-4-yl)-1H-indole derivatives are potent and selective 5-HT6 receptor antagonists” (Bioorg Med Chem Lett, 2005)

Columns and labels:
[1] = target: T1, 5-hydroxytryptamine receptor 6 (Homo sapiens, UniProt P50406); experiment: Binding affinity against cloned human 5-hydroxytryptamine 6 receptor expressed in HeLa cells using [3H]LSD; format: cell-based
[2] = target: T1, 5-hydroxytryptamine receptor 6; experiment: Inhibitory concentration against 5-HT stimulated cAMP production in HeLa cells stably transfected with human 5-HT6 receptor; format: functional, cell-based
[3] = target: 5-hydroxytryptamine receptor 1D (Homo sapiens) (UniProt P28221); experiment: Inhibition of [3H]5-HT binding to human cloned 5-hydroxytryptamine 1D receptor stably expressed in CHO cells at 1 uM; format: cell-based
D(3) dopamine receptor [4] = target: T2, D(3) dopamine receptor (Homo sapiens, UniProt P35462); experiment: Binding affinity against human cloned Dopamine receptor D3 stably expressed in CHO-K1 cells using [3H]spiperone; format: cell-based
D(4) dopamine receptor = target: T3, D(4) dopamine receptor (Homo sapiens, UniProt P21917); experiment: Binding affinity against human cloned Dopamine receptor D4 stably expressed in CHO-K1 cells using [3H]spiperone; format: cell-based
T3 sequence (P21917 whole entry): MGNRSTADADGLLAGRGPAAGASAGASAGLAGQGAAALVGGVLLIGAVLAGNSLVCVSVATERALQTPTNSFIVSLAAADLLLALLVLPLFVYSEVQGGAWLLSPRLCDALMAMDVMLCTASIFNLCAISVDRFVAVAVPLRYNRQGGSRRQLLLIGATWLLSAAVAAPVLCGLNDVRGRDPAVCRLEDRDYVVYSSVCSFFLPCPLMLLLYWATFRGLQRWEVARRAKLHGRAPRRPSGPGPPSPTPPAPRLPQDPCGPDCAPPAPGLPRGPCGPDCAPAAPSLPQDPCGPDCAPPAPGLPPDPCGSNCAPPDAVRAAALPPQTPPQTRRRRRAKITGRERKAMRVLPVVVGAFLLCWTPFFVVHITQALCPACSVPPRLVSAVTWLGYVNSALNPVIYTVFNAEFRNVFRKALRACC

[5] = target: T4, 5-hydroxytryptamine receptor 1F (Homo sapiens) (UniProt P30939); experiment: Inhibition of [3H]-5-HT binding to human cloned 5-hydroxytryptamine 1F receptor stably expressed in CHO cells at 1 uM; format: cell-based
T4 sequence (whole entry): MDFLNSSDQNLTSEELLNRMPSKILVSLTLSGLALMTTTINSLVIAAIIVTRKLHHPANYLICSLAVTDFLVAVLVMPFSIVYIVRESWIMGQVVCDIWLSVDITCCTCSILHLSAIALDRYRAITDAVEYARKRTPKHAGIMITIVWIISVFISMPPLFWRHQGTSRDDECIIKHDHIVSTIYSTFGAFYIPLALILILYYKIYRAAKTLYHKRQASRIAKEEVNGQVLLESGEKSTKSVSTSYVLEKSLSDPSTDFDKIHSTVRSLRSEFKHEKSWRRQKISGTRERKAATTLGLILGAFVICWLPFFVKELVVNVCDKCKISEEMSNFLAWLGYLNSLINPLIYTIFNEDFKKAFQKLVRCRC

[6] = target: T5, 5-hydroxytryptamine receptor 1A (Homo sapiens, UniProt P08908); experiment: Binding affinity against human cloned 5-hydroxytryptamine 1A receptor stably expressed in CHO cells using DPAT
T5 sequence (P08908 whole entry): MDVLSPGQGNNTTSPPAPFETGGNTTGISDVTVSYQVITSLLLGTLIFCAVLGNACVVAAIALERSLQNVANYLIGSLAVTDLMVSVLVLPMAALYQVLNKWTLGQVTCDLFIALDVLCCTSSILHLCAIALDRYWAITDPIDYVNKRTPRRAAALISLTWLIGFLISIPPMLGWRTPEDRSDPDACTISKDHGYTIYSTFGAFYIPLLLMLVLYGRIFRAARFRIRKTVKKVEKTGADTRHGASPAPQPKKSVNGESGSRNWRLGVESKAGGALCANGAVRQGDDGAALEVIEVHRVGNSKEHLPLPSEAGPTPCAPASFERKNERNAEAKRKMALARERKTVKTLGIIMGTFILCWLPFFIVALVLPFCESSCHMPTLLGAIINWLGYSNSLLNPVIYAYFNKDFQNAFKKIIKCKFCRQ

[7] = target: T6, 5-hydroxytryptamine receptor 2C (Homo sapiens, UniProt P28335); experiment: Binding affinity against human cloned 5-hydroxytryptamine 2C receptor stably expressed in CHO cells using [3H]-5-HT; format: cell-based
T6 sequence (P28335 whole entry): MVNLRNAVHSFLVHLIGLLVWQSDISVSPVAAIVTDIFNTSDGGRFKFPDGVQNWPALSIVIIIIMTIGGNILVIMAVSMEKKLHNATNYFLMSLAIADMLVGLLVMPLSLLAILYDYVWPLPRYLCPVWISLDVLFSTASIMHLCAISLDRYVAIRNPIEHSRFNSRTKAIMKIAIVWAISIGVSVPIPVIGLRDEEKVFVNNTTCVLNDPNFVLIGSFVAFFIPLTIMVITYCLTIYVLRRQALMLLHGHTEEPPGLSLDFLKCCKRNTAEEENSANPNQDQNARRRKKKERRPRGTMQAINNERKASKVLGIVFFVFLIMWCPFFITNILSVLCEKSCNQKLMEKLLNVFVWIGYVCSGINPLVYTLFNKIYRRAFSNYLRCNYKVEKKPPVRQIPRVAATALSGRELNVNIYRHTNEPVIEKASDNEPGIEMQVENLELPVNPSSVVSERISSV

D(2) dopamine receptor [8] = target: T7, D(2) dopamine receptor (Homo sapiens, UniProt P14416); experiment: Binding affinity against human cloned Dopamine receptor D2 stably expressed in CHO-K1 cells using [3H]spiperone; format: cell-based
[9] = target: 5-hydroxytryptamine receptor 1B (Homo sapiens) (UniProt P28222); experiment: Inhibition of [3H]-5-HT binding to human cloned 5-hydroxytryptamine 1B receptor stably expressed in CHO cells at 1 uM; format: cell-based
[10] = target: T8, 5-hydroxytryptamine receptor 2A (Homo sapiens, UniProt P28223); experiment: Binding affinity against human cloned 5-hydroxytryptamine 2A receptor stably expressed in CHO cells using [125I]DOI; format: cell-based
[11] = target: T9, 5-hydroxytryptamine receptor 2C (Homo sapiens) (UniProt P28335); experiment: Inhibition of [3H]5-HT binding to human cloned 5-hydroxytryptamine 2C receptor stably expressed in CHO cells at 1 uM; format: cell-based
T9 sequence (whole entry): T6 sequence (P28335 whole entry)

D(2) dopamine receptor [12] = target: T7, D(2) dopamine receptor; experiment: Inhibition of [3H]spiperone binding to human cloned Dopamine receptor D2 stably expressed in CHO-K1 cells at 1 uM; format: cell-based
[13] = target: 5-hydroxytryptamine receptor 7 (Homo sapiens, UniProt P34969); experiment: Binding affinity against human cloned 5-hydroxytryptamine 7 receptor stably expressed in CHO cells using [3H]LSD; format: cell-based
D(3) dopamine receptor [14] = target: T2, D(3) dopamine receptor; experiment: Inhibition of [3H]spiperone binding to human cloned Dopamine receptor D3 stably expressed in CHO-K1 cells at 1 uM; format: cell-based
[15] = target: T8, 5-hydroxytryptamine receptor 2A; experiment: Inhibition of [125I]DOI binding to human cloned 5-hydroxytryptamine 2A receptor stably expressed in CHO cells at 1 uM; format: cell-based
[16] = target: T10, D(4) dopamine receptor (Homo sapiens) (UniProt P21917); experiment: Inhibition of [3H]spiperone binding to human cloned Dopamine receptor D4 stably expressed in CHO-K1 cells at 1 uM; format: cell-based
T10 sequence (whole entry): T3 sequence (P21917 whole entry)

[17] = target: T1, 5-hydroxytryptamine receptor 6; experiment: Inhibition of [3H]LSD binding to cloned human 5-hydroxytryptamine 6 receptor expressed in HeLa cells at 1 uM; format: cell-based

T7 sequence (P14416 whole entry): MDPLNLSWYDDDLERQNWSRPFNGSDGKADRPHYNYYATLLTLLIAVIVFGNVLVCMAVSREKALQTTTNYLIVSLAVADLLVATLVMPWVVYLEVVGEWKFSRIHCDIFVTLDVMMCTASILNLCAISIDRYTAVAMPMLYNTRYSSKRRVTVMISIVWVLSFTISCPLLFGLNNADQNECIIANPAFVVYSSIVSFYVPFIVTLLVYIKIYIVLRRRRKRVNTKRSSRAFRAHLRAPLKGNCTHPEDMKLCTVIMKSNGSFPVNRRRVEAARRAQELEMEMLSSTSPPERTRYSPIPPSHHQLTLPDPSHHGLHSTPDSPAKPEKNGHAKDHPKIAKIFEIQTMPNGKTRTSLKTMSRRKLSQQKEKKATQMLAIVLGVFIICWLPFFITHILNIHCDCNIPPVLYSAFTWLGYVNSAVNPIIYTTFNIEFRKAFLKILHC
T1 sequence (P50406 whole entry): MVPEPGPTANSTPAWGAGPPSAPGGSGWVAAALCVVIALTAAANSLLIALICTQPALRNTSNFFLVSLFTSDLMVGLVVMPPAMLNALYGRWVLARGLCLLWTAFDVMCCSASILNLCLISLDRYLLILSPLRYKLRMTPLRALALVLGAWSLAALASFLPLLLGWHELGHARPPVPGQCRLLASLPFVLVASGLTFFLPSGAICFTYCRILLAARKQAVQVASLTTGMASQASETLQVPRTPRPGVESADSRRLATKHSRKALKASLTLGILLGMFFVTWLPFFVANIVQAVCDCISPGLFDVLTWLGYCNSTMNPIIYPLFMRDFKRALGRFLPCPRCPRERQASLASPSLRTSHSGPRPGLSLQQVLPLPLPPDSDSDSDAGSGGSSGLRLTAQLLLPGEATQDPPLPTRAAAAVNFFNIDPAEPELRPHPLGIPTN
Chain of 5-hydroxytryptamine receptor 7 (P34969 whole entry): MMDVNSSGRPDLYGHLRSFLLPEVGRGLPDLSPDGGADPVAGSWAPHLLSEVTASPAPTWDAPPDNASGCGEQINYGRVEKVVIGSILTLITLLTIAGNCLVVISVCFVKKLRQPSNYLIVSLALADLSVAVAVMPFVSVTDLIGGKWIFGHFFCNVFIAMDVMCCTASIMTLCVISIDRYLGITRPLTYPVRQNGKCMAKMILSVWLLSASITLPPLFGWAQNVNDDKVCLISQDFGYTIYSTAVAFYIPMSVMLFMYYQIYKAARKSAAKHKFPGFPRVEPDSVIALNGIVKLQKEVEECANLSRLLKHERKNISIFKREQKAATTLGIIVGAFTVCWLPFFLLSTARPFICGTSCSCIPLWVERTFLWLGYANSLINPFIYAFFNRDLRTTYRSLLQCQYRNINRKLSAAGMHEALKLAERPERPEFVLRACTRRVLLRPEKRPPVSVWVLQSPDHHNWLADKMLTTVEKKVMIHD
Chain of 5-hydroxytryptamine receptor 1D (Homo sapiens) (P28221 whole entry): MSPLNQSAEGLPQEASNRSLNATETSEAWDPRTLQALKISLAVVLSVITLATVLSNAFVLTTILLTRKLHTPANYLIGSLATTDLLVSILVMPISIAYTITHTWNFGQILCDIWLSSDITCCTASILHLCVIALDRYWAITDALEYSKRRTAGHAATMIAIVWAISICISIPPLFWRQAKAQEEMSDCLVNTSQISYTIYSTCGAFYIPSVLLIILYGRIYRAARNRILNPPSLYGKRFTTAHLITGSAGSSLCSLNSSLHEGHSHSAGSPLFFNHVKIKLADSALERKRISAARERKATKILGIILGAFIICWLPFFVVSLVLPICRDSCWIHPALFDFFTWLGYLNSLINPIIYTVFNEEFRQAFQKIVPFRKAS
T2 sequence (P35462 whole entry): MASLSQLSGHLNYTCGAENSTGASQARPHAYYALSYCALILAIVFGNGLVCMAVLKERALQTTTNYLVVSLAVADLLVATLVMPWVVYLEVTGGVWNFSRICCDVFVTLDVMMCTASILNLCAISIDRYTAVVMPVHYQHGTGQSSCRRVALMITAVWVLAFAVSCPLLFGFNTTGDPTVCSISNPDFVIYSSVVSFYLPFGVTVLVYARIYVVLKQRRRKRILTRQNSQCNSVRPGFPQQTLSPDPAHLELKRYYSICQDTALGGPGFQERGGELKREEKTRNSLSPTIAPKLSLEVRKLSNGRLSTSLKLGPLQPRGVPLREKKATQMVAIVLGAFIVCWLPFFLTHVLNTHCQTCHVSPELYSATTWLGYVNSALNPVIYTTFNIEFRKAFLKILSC
T8 sequence (P28223 whole entry): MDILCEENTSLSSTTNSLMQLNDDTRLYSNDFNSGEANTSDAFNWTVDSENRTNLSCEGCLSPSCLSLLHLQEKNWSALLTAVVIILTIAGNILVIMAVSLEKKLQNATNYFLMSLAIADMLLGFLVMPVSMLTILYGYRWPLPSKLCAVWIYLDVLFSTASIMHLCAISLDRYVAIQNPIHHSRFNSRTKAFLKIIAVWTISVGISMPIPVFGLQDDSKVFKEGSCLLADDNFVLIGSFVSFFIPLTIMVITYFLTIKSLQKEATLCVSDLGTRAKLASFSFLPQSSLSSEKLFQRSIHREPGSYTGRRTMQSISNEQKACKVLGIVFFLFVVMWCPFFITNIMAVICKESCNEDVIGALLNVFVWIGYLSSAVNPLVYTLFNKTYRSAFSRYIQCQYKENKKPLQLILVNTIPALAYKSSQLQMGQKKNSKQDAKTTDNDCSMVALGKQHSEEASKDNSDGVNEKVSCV
Chain of 5-hydroxytryptamine receptor 1B (Homo sapiens) (P28222 whole entry): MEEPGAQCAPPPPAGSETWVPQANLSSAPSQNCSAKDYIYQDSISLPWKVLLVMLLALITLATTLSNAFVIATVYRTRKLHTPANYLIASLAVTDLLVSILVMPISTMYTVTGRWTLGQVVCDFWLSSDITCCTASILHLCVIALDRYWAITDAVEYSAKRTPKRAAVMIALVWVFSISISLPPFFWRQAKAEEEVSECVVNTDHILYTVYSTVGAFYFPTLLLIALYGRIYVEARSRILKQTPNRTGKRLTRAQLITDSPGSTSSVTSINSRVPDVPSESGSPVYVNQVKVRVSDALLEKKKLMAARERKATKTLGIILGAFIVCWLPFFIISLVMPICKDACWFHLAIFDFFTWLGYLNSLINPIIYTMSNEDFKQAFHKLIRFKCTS

SMILES | Ki [1] | IC50 [2] | also measured
O=S(=O)(c1ccc(F)cc1)n1cc(C2=CCNCC2)c2cc(F)ccc21 | 3 nM | 31 nM | 
O=S(=O)(c1ccc(Cl)cc1)n1cc(C2=CCNCC2)c2cc(F)ccc21 | 14 nM |  | 
COc1ccc(S(=O)(=O)n2cc(C3=CCNCC3)c3ccccc32)cc1 | 18 nM |  | 
CN1CC=C(c2cn(C(=O)Nc3ccccc3)c3ccccc23)CC1 | 118 nM |  | 
CCCCS(=O)(=O)n1cc(C2=CCNCC2)c2ccccc21 | 77 nM |  | 
CC(C)(C)OC(=O)N1CC=C(c2cn(S(=O)(=O)c3ccccc3)c3ccccc23)CC1 | 54 nM |  | 
CN1CC=C(c2cn(S(=O)(=O)c3ccccc3F)c3ccccc23)CC1 | 10 nM | 3.9 nM | 
O=S(=O)(c1ccccc1Cl)n1cc(C2=CCNCC2)c2ccccc21 | 0.4 nM | 8.8 nM | inhibition [3]: 6%; Ki (D(3) dopamine receptor [4]): 627 nM; Ki (D(4) dopamine receptor): > 5000 nM; inhibition [5]: 2%; Ki [6]: > 2000 nM; Ki [7]: 383 nM; Ki (D(2) dopamine receptor [8]): > 2000 nM; inhibition [9]: 12%; Ki [10]: 599 nM
Nc1ccc(S(=O)(=O)n2cc(C3CCNCC3)c3cc(F)ccc32)cc1 | 2 nM | 1.3 nM | 
CN1CC=C(c2cn(S(=O)(=O)c3ccc(F)cc3)c3ccccc23)CC1 | 5 nM | 42.7 nM | 
Nc1ccc(S(=O)(=O)n2cc(C3CCNCC3)c3ccc(Cl)cc32)cc1 | 3 nM | 8.5 nM | inhibition [11]: 15%; inhibition [3]: 10%; inhibition [5]: 16%; inhibition (D(2) dopamine receptor [12]): 10%; Ki [6]: 115 nM; Ki [13]: > 2000 nM; inhibition [9]: 30%; inhibition (D(3) dopamine receptor [14]): 7%; inhibition [15]: 65%; inhibition [16]: 7%
CN1CC=C(c2cn(S(=O)(=O)c3cccc(Cl)c3)c3ccccc23)CC1 | 1 nM | 9.4 nM | 
O=S(=O)(c1ccccc1)n1cc(C2=CCN(Cc3ccccc3)CC2)c2ccccc21 | 246 nM |  | 
O=S(=O)(c1ccccc1F)n1cc(C2=CCNCC2)c2ccccc21 | 1 nM | 2.7 nM | inhibition [11]: 57%; inhibition [3]: 9%; Ki (D(3) dopamine receptor [4]): 741 nM; Ki (D(4) dopamine receptor): > 5000 nM; inhibition [5]: 53%; Ki [6]: 875 nM; Ki (D(2) dopamine receptor [8]): > 2000 nM; inhibition [9]: 11%; inhibition [15]: 50%
CC(=O)N1CC=C(c2cn(S(=O)(=O)c3ccccc3)c3ccccc23)CC1 |  |  | inhibition [17]: 64%
CN1CC=C(c2cn(C(=O)c3ccccc3)c3ccccc23)CC1 | 99 nM |  | 
O=S(=O)(c1ccccc1)n1cc(C2=CCNCC2)c2ccccc21 | 2 nM | 43 nM | 
Nc1ccc(S(=O)(=O)n2cc(C3=CCNCC3)c3ccc(Cl)cc32)cc1 | 3 nM | 11.2 nM | 
Nc1ccc(S(=O)(=O)n2cc(C3=CCNCC3)c3cc([N+](=O)[O-])ccc32)cc1 | 29 nM |  | 

SMILES | Ki [1] | IC50 [2] | also measured
O=S(=O)(c1ccccc1)n1cc(C2=CCNCC2)c2cc(F)ccc21 | 2.4 nM |  | 
CN1CC=C(c2c[nH]c3ccccc23)CC1 | 98 nM |  | 
COc1ccc2c(c1)c(C1=CCNCC1)cn2S(=O)(=O)c1ccc(N)cc1 | 3 nM | 0.4 nM | inhibition [3]: 32%; Ki [6]: 97 nM; Ki [13]: > 5000 nM; inhibition [9]: 27%
O=S(=O)(c1ccc(Cl)s1)n1cc(C2=CCNCC2)c2ccccc21 | 3 nM | 14.1 nM | 
Nc1ccc(S(=O)(=O)n2cc(C3=CCNCC3)c3cc(OCc4ccccc4)ccc32)cc1 | 50 nM |  | 
O=S(=O)(c1nccc2sncc12)n1cc(C2=CCNCC2)c2ccccc21 | 5 nM | 169 nM | 
COc1ccc2c(c1)c(C1=CCNCC1)cn2S(=O)(=O)c1ccc2ccccc2c1 | 19 nM | 4.1 nM | 
Nc1ccc(S(=O)(=O)n2cc(C3=CCNCC3)c3ccc([N+](=O)[O-])cc32)cc1 | 31 nM |  | 
Nc1ccc(S(=O)(=O)n2cc(C3=CCNCC3)c3ccccc32)cc1 | 2 nM | 0.8 nM | Ki [6]: 1670 nM; Ki [13]: 1550 nM; inhibition [9]: 33%
Nc1ccc(S(=O)(=O)n2cc(C3=CCNCC3)c3cc(Br)ccc32)cc1 | 7 nM | 33.7 nM | 
CN1CC=C(c2cn(S(=O)(=O)c3ccccc3)c3ccccc23)CC1 | 2 nM | 13.8 nM | 
CN1CC=C(c2cn(S(=O)(=O)c3ccccc3Cl)c3ccccc23)CC1 | 10 nM | 0.7 nM | 
O=S(=O)(c1ccc2ccccc2c1)n1cc(C2=CCNCC2)c2ccccc21 | 27 nM |  | 
Nc1ccc(S(=O)(=O)n2cc(C3=CCNCC3)c3cc(F)ccc32)cc1 | 1 nM | 9.7 nM | 
O=S(=O)(c1cccc2ccccc12)n1cc(C2=CCNCC2)c2cc(F)ccc21 | 4 nM | 9 nM | 
O=S(=O)(c1ccccc1)n1cc(C2CCNCC2)c2ccccc21 | 12 nM | 19.5 nM | 
O=S(=O)(c1ccccc1)n1cc(C2CCNCC2)c2cc(F)ccc21 | 20 nM |  | 
O=S(=O)(c1ccc(C(F)(F)F)cc1)n1cc(C2=CCNCC2)c2ccccc21 | 20 nM |  | 
Nc1ccc(S(=O)(=O)n2cc(C3=CCNCC3)c3cc4c(cc32)OCO4)cc1 | 1 nM | 1.7 nM | 
